For experiment [1], the system named is COX-2 promoter. The experiment in a line: COX-2 promoter luciferase reporter gene assay, transiently transfected RAW 264.7 cells. The format is cell-based, murine. Also noted: lauric acid-induced COX-2 expression on co-transfection of dominant-negative IkBa / lauric acid-induced COX-2 expression on co-transfection of dominant-negative PPARγ / lauric acid-induced COX-2 expression on co-transfection of dominant-negative TLR4 [DTLR4 (P712H)]: dose or concentration left out as unconfirmed. An excerpt: Plasmids and DNA Constructs—All plasmids and constructs were obtained or made as reported in either S. H. Rhee and D. Hwang, “Murine TOLL-like receptor 4 confers lipopolysaccaride responsiveness as determined by activation of NFκB and expression of the inducible cyclooxygenase,” Journal of Biological Chemistry, vol. 275, pp. 34035-34040 (2000); and J. Y. Lee et al., “Saturated fatty acids, but not unsaturated fatty acids, induce the expression of cyclooxygenase-2 mediated through TOLL-like receptor 4,” Journal of Biological Chemistry, vol. 276, pp. 16683-16689 (2001). Briefly, the luciferase reporter plasmids (pGL2) containing the promoter region of the murine COX-2 gene (−3201/+93 or −1017/+93) were provided by David Dewitt (Michigan State University, East Lansing, Mich.). To prepare the wild-type COX-2 promoter fragment, polymerase chain reaction (PCR) was performed with the primers named Kpn-COX2-For and Hind-COX2-Rev using the murine COX-2 (−1017/+93) luciferase reporter plasmid as a template. To prepare the mutant COX-2 promoter fragment containing mutated NFκB site, Kpn-COX2-Fmut and Hind-COX2-Rev were used as primers. Each PCR fragment was inserted into the KpnI and HindIII sites of pGL2 to generate the wild-type or mutant COX-2 (−410/+86) luciferase reporter constructs, respectively. Sequences for wild-type NFκB site and the primers were used as reported elsewhere. (See Lee et al., 2001). The 2×NFκB-luciferase reporter construct was a gift from Frank Mercurio (Signal Pharmaceuticals, San Diego, Calif.). HSP70-β-galactosidase reporter plasmid was a gift from Robert Modlin (University of California, Los Angeles, Calif.). The expression plasmids for a constitutively active form of TLR4 (DTLR4) and a dominant-negative mutant, DTLR4 (P712H) were prepared as previously described. See S. H. Rhee et al., 2000. The expression plasmid of the wild-type NFκB-inducing kinase (NIK), pRK-NIK(wt) was a gift from Mike Rothe (Tularik, South San Francisco, Calif.). The dominant-negative mutant of inhibitor kB (pCMV4-IkBa(DN)) was provided by Dean Ballard (Vanderbilt University, Nashville, Tenn.). 4×NFκB-luciferase reporter construct was purchased from Clontech (Palo Alto, Calif.) and used for transient transfection. Heat shock protein 70 (HSP70)-β-galactosidase reporter plasmid was from Robert Modlin (University of Calif., Los Angeles, Calif.). The expression plasmids for a wild-type TLR2 and a dominant-negative mutant [TLR2 (P681H)] were from C. B. Wilson (University of Washington, Seattle, Wash.). Constitutively active chimeric CD4-TLR4 was obtained from C. A. Janeway, Jr. (Yale University, New Haven, Conn.). The constitutively active form of MyD88 (MyD88(ΔToll)) and the dominant-negative mutant, MyD88(ΔDD) were kindly provided by Jurg Tschopp (University of Lausanne, Switzerland). The dominant-negative mutant of mouse PPARg [pCMX-PPARg(L466A/L467A)] was a gift from Ira Schulman (Ligand Pharmaceuticals, San Diego, Calif.). All DNA constructs were prepared in large scale using the EndoFree Plasmid Maxi kit (Qiagen, Chatsworth, Calif.) for transfection.
Transient transfection and luciferase assay—These procedures were performed as described in S. H. Rhee et al., “Murine TOLL-like receptor 4 confers lipopolysaccharide responsiveness as determined by activation of NFκB and expression of the inducible cyclooxygenase,” J. Biol. Chem., vol. 275, pp. 34035-34040 (2000); and J. H. Paik et al., “Two opposing effects of non-steroidal anti-inflammatory drugs on the expression of the inducible cyclooxygenase, Mediation through different signaling pathways,” J. Biol. Chem., vol. 275, pp. 28173-28179 (2000). Briefly, RAW 264.7 cells were plated in 6-well plates (5×10^5 cells/well) and transfected with luciferase reporter plasmids and HSP70-β-galactosidase plasmid as an internal control using SuperFect transfect reagent (Quiagen) according to the manufacturer's instructions. […]
(Reporter assays use an easily measured gene product as a stand-in for the process of interest.)

Experiment [2] has as its system COX-2 promoter. The experiment in a line: COX-2 promoter luciferase reporter, stably transfected RAW 264.7 cells, TLR agonist-induced. Conditions: pretreated 3 hrs. The format is cell-based, murine. As for the experimental part:
Preparation of stably transfected cells with luciferase reporter plasmids. RAW 264.7 cells (1×10^6 cells) were plated in 100 mm dish and transfected with murine COX-2 promoter (−3.2 kb) luciferase plasmid using Superfect Transfection reagent (Qiagen) according to the manufacturer's instruction. pcDNA3/neo was co-transfected to select transfected cells using the antibiotic. After 48 hrs of stabilization, the new media containing Geneticin (500 μg/ml) was added and changed for appropriate time periods. Two weeks later, the colonies that survived were selected and propagated under Geneticin. After another two weeks of antibiotic selection, the luciferase activities were determined for each colony after treatment with LPS (100 ng/ml).
These stably transfected cell lines eliminated the necessity of transfecting plasmids for the reporter gene and the internal control. Thus, inhibitory or stimulatory effects of various fatty acids on agonist-induced TLR activation were quantitatively determined in a high throughput mode using 96 well plates. […] Therefore, NFκB activation and COX-2 expression was used as readouts for agonist-induced TLR activation, and its suppression or potentiation by fatty acids in this experiment. […]
(FIG. 10A). […] After 8 hrs, luciferase activities were determined. Data are expressed as a percentage of PamCAG treatment alone.

Molecules are shown by their SMILES.

`CCCCCCCCCCCC(=O)O` [lauric acid]: in experiment [1] (24 hours), the “lauric acid-induced COX-2 expression on co-transfection of dominant-negative IkBa” value is on record as “inhibited” and the “lauric acid-induced COX-2 expression on co-transfection of dominant-negative TLR4 [DTLR4 (P712H)]” value was “inhibits”. In experiment [1] (24 hours, with or without PPRE-like sequences), the “lauric acid-induced COX-2 expression on co-transfection of dominant-negative PPARγ” value was “not altered”. Besides, the “lauric acid-induced COX-2 expression, promoter with mutated NFκB site vs wild-type site” value in experiment [1] (COX-2 promoter reporter with mutated NFκB site) was “significantly reduced”. Further, the “effect on LPS-induced COX-2 expression (reporter gene)” value in experiment [2] (LPS 200 ng/ml 8 hrs) is recorded as “potentiated”. Also, the “effect on PamCAG-induced COX-2 expression” value in experiment [2] (PamCAG 500 ng/ml 8 hrs) is reported as “potentiated”.

Source of the values: patent US20030032674A1, “Use of unsaturated fatty acids to treat severe inflammatory diseases” (priority 2001, published 2003).
